Assay results published in patent US8961986B2, “Peptide composition” (Apitope Technology (Bristol) Limited, priority 2000, dated 2015).
Entries after “also recorded” stand apart in the source; their conditions may differ.

Columns and labels:
[1] = system: 81-111-responsive T-cell line and sub-lines; assay: Reactivity of T cell lines and clones from peptide-primed mice to MBP 81-111 region peptides; type: cell-based; details: TCL specific for 89-94, 92-98, 95-101
Method: In order to investigate T cell reactivity to the 81-111 region of MBP, lymph node cells from mice primed with 81-111 are stimulated with 81-111 in vitro and these cells are tested with a panel of overlapping 10-mer peptides with two residue shifts covering the 81-111 region (namely: 81-90, 83-92, 85-94, 87-96, 89-98, 91-100, 93-102, 95-104, 97-106, 99-108 and 101-111). The response pattern to peptides covering the 89-101 show stimulatory capacity for 5 adjacent peptides (N terminal 87-96 through to 95-104) reflecting the presence of at least two (and perhaps three) distinct epitopes.
In order to investigate this region further, three sub-lines are generated from the original 81-111-responsive T-cell line and these are retested with a panel of overlapping 10-mer peptides with one residue shift covering the 84-106 region. The results reveal the existence of three distinct but overlapping T cell epitopes within the 89-101 sequence: 89-94, 92-98 and 95-101 (see FIG. 14).

[2] = system: draining lymph node cells; assay: Tolerance experiments with 89-101 and 87-96: lymph node cell recall proliferation; type: in vivo, Mice
Method: In order to test this possibility tolerance experiments are performed with the 89-101 and 87-96 peptides (FIGS. 15a and b).
Mice received 200 μg of peptide in PBS or PBS alone intraperitoneally on days −8, −6 and −4 prior to 100 μg of peptide in complete Freunds adjuvant on day 0. After 10 days, draining lymph node cells (6×10^5 per well) were cultured in X-Vivo 15 medium supplemented with 5×10^−5M 2-mercaptoethanol and […] L-glutamine with or without antigen for 72 hours. Cultures were pulsed for the final 16 hours with 0.5 μCi ^3H.thymidine and incorporation measured using a liquid scintillation counter. Results are expressed as means counts per minute for triplicate cultures.

[3] = system: experimental autoimmune encephalomyelitis (EAE); details: cited from earlier work
[4] = target: T1, I-A^S (Mus musculus, UniProt P06345+P14437); details: cited from earlier work
T1 sequence (P14437 1-233): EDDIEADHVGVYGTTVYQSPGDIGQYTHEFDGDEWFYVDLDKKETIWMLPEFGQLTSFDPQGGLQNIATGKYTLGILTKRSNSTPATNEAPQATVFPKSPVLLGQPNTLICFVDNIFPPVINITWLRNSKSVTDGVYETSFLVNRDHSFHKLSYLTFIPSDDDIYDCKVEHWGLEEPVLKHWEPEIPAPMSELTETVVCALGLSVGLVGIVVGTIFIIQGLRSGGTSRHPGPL
T1 sequence (P06345 28-263): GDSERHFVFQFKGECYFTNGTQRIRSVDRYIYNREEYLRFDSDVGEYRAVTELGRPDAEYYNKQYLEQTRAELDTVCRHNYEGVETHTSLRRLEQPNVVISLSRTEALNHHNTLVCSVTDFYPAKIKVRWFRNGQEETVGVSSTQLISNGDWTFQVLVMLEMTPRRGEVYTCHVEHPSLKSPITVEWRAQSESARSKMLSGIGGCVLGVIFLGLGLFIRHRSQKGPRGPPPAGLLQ

[5] = target: T2, HLA-DR2a (Homo sapiens, UniProt P01903+Q30154); assay: Antigen presentation assay, HLA-DR2a transfected L-cells; type: cell-based
T2 construct: expressed in transfected cells; host or cells: L-cells
T2 sequence (P01903 26-254): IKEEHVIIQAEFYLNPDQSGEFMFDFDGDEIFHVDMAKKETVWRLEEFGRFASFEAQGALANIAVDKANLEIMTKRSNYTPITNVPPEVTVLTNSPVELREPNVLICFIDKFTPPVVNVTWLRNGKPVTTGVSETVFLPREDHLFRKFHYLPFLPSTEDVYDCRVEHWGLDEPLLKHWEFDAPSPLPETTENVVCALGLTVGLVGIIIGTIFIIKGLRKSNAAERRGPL
T2 sequence (Q30154 30-266): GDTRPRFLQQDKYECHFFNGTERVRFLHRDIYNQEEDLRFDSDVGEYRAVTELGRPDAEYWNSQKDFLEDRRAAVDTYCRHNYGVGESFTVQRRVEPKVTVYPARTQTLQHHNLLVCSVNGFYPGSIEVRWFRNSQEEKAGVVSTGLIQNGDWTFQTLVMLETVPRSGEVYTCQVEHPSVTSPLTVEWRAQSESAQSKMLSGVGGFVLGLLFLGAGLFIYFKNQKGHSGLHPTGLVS
Description: (§1) MBP peptides 30-44, 130-144 and 139-153 were synthesized using L-amino acids and standard F-moc chemistry on an Abimed AMS 422 multiple peptide synthesiser.
(§2) L-cells transfected with either HLA-DQ6, HLA-DR2a or HLA-DR2b, or Mgar cells (EACC, Porton Down, UK) which express HLA-DQ, DP and DR were used as APCs.
(§3) T-cell clones MS 49:D3 and MS17:A2 were generated from MS patients and clone N5:19 was generated from a normal individual. All three clones were DR2 positive.
(§4) Antigen presenting cells were incubated with the various concentrations of peptide and the appropriate T-cells. Proliferation, and therefore activation, of the T-cells was measured by [^3H]-Thymidine incorporation, and expressed as the stimulation index (SI=corrected counts per minute (ccpm) culture containing peptide/ccpm culture without peptide).

[6] = target: T3, HLA-DR2b (Homo sapiens, UniProt P01903+P01911); assay: Antigen presentation assay, HLA-DR2b transfected L-cells; type: cell-based
T3 construct: expressed in transfected cells; host or cells: L-cells
T3 sequence (P01903 26-254): as the sequence (P01903 26-254) above
T3 sequence (P01911 30-266): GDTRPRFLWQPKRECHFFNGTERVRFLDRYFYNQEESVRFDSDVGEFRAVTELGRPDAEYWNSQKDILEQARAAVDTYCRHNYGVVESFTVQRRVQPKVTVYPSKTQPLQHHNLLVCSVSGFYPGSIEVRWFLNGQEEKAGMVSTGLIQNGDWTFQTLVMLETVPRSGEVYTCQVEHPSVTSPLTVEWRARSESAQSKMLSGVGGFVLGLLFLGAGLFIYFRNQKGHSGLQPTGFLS
Description: as §1, §2, §3, §4

| Substance | response of the three epitope-specific T cell lines (TCL) to the peptide [1] | effect of peptide as tolerogen on recall responses after priming with 87-96 ([2]; 200 μg i.p. days -8, -6, -4, priming 87-96 in CFA day 0, lymph node cells day 10) | in vitro recall response after priming with 87-96 ([2]; PBS pre-treated mice, lymph node cells) | inducing tolerance when administered in solution ([3]; Anderton and Wraith (1998)) | prevention of / protection against EAE by peptide in soluble form ([3]; EAE induced with whole myelin or the 89-101 peptide) | immunogenicity: priming for T cell reactivity and induction of EAE ([3]; after immunisation) | binding affinity for I-A^S [4] | proliferation of N5:19 T-cell clone, HLA-DR2a transfected L-cells [5] | proliferation of N5:19 T-cell clone, HLA-DR2b transfected L-cells [6] |
| --- | --- | --- | --- | --- | --- | --- | --- | --- | --- |
| MBP 89-101: myelin basic protein (MBP) peptide 89-101, immunodominant antigen, not tolerogenic (PHLIRLFSRDAPG; UniProt P02686 89-101, looked up, fragment) | All three TCL respond | failed to inhibit recall responses to either 87-96 or 89-101 | weaker response | ineffective at inducing tolerance | does not prevent; also recorded: fails to protect against EAE | very effective immunogen | relatively high affinity | – | – |
| MBP 139-153: MBP peptide 139-153 synthesized using L-amino acids (RPSQRHGSKYLATAS) | – | – | – | – | – | – | – | stimulated proliferation | not |
